Data: ChEMBL document CHEMBL3885861, “Open TG-GATES”

Species: Rattus norvegicus
Experiment: Open TG-GATES - Regimen: Single
Assay type: toxicity, organism-based, Sprague-Dawley
Design: regimen Single, gender Male, age 6 weeks
Conditions: in vivo, po, 1000 mg/kg, route gavage, dose level High; for APTT / Bas / Eos / Fbg / Hb / Ht / Lym / MCH / MCHC / MCV / Mono / Neu / PT / Plat / RBC / Ret / WBC: tissue Blood; for KIDNEY_L / KIDNEY_R / KIDNEY_TOTAL: tissue Kidney; for LIVER: tissue Liver; for A/G / ALP / ALT / AST / BUN / CRE / Ca / Cl / DBIL / GLC / IP / K / LDH / Na / PL / RALB / TBIL / TC / TG / TP / gamma-GTP: tissue Plasma

Cc1nnc2n1-c1ccc(Cl)cc1C(c1ccccc1Cl)=NC2 [TRIAZOLAM]
TERMINAL_BW (3 h): 193.6 g | APTT (3 h): 16 s | Bas (3 h): 0% | Eos (3 h): 1% | Fbg (3 h): 277.8 mg/dL | Hb (3 h): 13.8 g/dL | Ht (3 h): 41.7% | Lym (3 h): 72% | MCH (3 h): 20.9 pg | MCHC (3 h): 33.2% | MCV (3 h): 63 fL | Mono (3 h): 3.2% | Neu (3 h): 23% | PT (3 h): 13.4 s | Plat (3 h): 135.1 x10_4/uL | RBC (3 h): 663 x10_4/ul | Ret (3 h): 9.1% | WBC (3 h): 64.9 x10_2/uL | KIDNEY_L (3 h): 0.9 g | KIDNEY_R (3 h): 0.9 g | KIDNEY_TOTAL (3 h): 1.8 g | LIVER (3 h): 8.3 g | A/G (3 h): 0.9 | ALP (3 h): 1289.6 IU/L | ALT (3 h): 38.8 IU/L | AST (3 h): 72 IU/L | BUN (3 h): 9.4 mg/dL | CRE (3 h): 0.1 mg/dL | Ca (3 h): 11 mg/dL | Cl (3 h): 102.6 meq/L | DBIL (3 h): 0.008 mg/dL | GLC (3 h): 174.6 mg/dL | IP (3 h): 10.4 mg/dL | K (3 h): 4.3 meq/L | LDH (3 h): 97.8 IU/L | Na (3 h): 139.6 meq/L | PL (3 h): 148.8 mg/dL | RALB (3 h): 2.4 g/dL | TBIL (3 h): 0.064 mg/dL | TC (3 h): 78.2 mg/dL | TG (3 h): 50 mg/dL | TP (3 h): 5.2 g/dL | gamma-GTP (3 h): 1 IU/L | TERMINAL_BW (6 h): 193.6 g | APTT (6 h): 18.3 s | Bas (6 h): 0% | Eos (6 h): 0.6% | Fbg (6 h): 282 mg/dL | Hb (6 h): 13.9 g/dL | Ht (6 h): 42.3% | Lym (6 h): 75.8% | MCH (6 h): 20.6 pg | MCHC (6 h): 32.8% | MCV (6 h): 62.8 fL | Mono (6 h): 2.2% | Neu (6 h): 20.4% | PT (6 h): 13.5 s | Plat (6 h): 122.7 x10_4/uL | RBC (6 h): 674 x10_4/ul | Ret (6 h): 8.5% | WBC (6 h): 87.5 x10_2/uL | KIDNEY_L (6 h): 0.9 g | KIDNEY_R (6 h): 0.9 g | KIDNEY_TOTAL (6 h): 1.8 g | LIVER (6 h): 8.3 g | A/G (6 h): 0.9 | ALP (6 h): 1325.6 IU/L | ALT (6 h): 36 IU/L | AST (6 h): 67.4 IU/L | BUN (6 h): 10 mg/dL | CRE (6 h): 0.1 mg/dL | Ca (6 h): 11.2 mg/dL | Cl (6 h): 103.2 meq/L | DBIL (6 h): 0.012 mg/dL | GLC (6 h): 184.2 mg/dL | IP (6 h): 10.9 mg/dL | K (6 h): 4.5 meq/L | LDH (6 h): 87.2 IU/L | Na (6 h): 141.6 meq/L | PL (6 h): 162.8 mg/dL | RALB (6 h): 2.5 g/dL | TBIL (6 h): 0.056 mg/dL | TC (6 h): 85.4 mg/dL | TG (6 h): 68.2 mg/dL | TP (6 h): 5.3 g/dL | gamma-GTP (6 h): 1.6 IU/L | TERMINAL_BW (9 h): 192.1 g | APTT (9 h): 16.7 s | Bas (9 h): 0% | Eos (9 h): 0.6% | Fbg (9 h): 282.6 mg/dL | Hb (9 h): 13.3 g/dL | Ht (9 h): 40.5% | Lym (9 h): 74.2% | MCH (9 h): 20.9 pg | MCHC (9 h): 32.8% | MCV (9 h): 63.8 fL | Mono (9 h): 2.4% | Neu (9 h): 21.6% | PT (9 h): 13.9 s | Plat (9 h): 116.9 x10_4/uL | RBC (9 h): 635.4 x10_4/ul | Ret (9 h): 9.5% | WBC (9 h): 86.1 x10_2/uL | KIDNEY_L (9 h): 0.9 g | KIDNEY_R (9 h): 0.9 g | KIDNEY_TOTAL (9 h): 1.8 g | LIVER (9 h): 7.6 g | A/G (9 h): 0.9 | ALP (9 h): 1384.4 IU/L | ALT (9 h): 41.8 IU/L | AST (9 h): 73.4 IU/L | BUN (9 h): 9 mg/dL | CRE (9 h): 0.1 mg/dL | Ca (9 h): 10.9 mg/dL | Cl (9 h): 104 meq/L | DBIL (9 h): 0.014 mg/dL | GLC (9 h): 177.8 mg/dL | IP (9 h): 10.6 mg/dL | K (9 h): 4.4 meq/L | LDH (9 h): 84.2 IU/L | Na (9 h): 141 meq/L | PL (9 h): 148 mg/dL | RALB (9 h): 2.5 g/dL | TBIL (9 h): 0.064 mg/dL | TC (9 h): 76.4 mg/dL | TG (9 h): 56.4 mg/dL | TP (9 h): 5.1 g/dL | gamma-GTP (9 h): 1.4 IU/L | TERMINAL_BW (24 h): 208.3 g | APTT (24 h): 17 s | Bas (24 h): 0.2% | Eos (24 h): 0.8% | Fbg (24 h): 290.2 mg/dL | Hb (24 h): 13.9 g/dL | Ht (24 h): 41.6% | Lym (24 h): 75.4% | MCH (24 h): 20.8 pg | MCHC (24 h): 33.4% | MCV (24 h): 62.2 fL | Mono (24 h): 2.8% | Neu (24 h): 20.4% | PT (24 h): 13 s | Plat (24 h): 128.9 x10_4/uL | RBC (24 h): 669.2 x10_4/ul | Ret (24 h): 8.2% | WBC (24 h): 97.7 x10_2/uL | KIDNEY_L (24 h): 0.9 g | KIDNEY_R (24 h): 0.9 g | KIDNEY_TOTAL (24 h): 1.8 g | LIVER (24 h): 9.9 g | A/G (24 h): 0.9 | ALP (24 h): 1921.8 IU/L | ALT (24 h): 44.8 IU/L | AST (24 h): 60.2 IU/L | BUN (24 h): 13.6 mg/dL | CRE (24 h): 0.2 mg/dL | Ca (24 h): 11.5 mg/dL | Cl (24 h): 100.8 meq/L | DBIL (24 h): 0.014 mg/dL | GLC (24 h): 175.6 mg/dL | IP (24 h): 10 mg/dL | K (24 h): 4.3 meq/L | LDH (24 h): 84.4 IU/L | Na (24 h): 141.4 meq/L | PL (24 h): 167.6 mg/dL | RALB (24 h): 2.7 g/dL | TBIL (24 h): 0.058 mg/dL | TC (24 h): 85.2 mg/dL | TG (24 h): 84.2 mg/dL | TP (24 h): 5.6 g/dL | gamma-GTP (24 h): 1 IU/L
